Measured values reported in patent US6602852B1, “Basic peptides and pharmaceutical compositions containing same” (NST NeuroSurvival Technologies, Ltd., priority 1998, dated 2003).

Key:
[1] = system: Human Umbilical Vein Endothelial Cells (HUVEC); conditions: 500 ng of compound, 40 minutes
Protocol: HUVEC (CC-2517, obtained from Clonetics, Walkersville, Md.) were grown on tissue culture flasks in Endothelial cell medium (EGM-2 Bulletkit, CC 3162, Clonetics). Mid-confluent cultures were harvested using Trypsine/EDTA solution (CC-5012, Clonetics). The cells were rinsed twice with PBS containing 2% BSA and kept on ice. Samples of 10^6 cells were tested for binding.
The reactions were incubated at room temperature for 40 minutes and then 400 μl of TBS-BSA were added and cells were collected by centrifugation at 3000×g for 3 minutes. Cells were washed in 1 ml of TBS-BSA and centrifuged as before and then suspended in 100 μl of TBS-BSA containing streptavidin conjugated to flourescein (FITC) for detection of the bound biotinylated compound. […] Thereafter, 400 μl of TBS-BSA were added and cells were centrifuged and washed again with 1 ml of TBS-BSA as before and then resuspended in 400 μl of TSS and taken for FACS analysis.
The FACS analysis was performed on Beckton-Dickinson cell sorter, using lysis II software. Excitation was at 488 nm and emission for FITC detection was a 535 nm.
A dot plot analysis was done for each treatment.

[2] = system: procoagulant activity of apoptotic HeLa S3 cells; conditions: 0.5 μM
Protocol: In the standard APTT test, clot formation is triggered by recalcification of plasma and addition of cephalin, i.e. negatively-charged phospholipids. Time until clot formation was measured as described in Example 3. […] In the modified APTT test, used in the present study, the addition of negatively-charged phospholipids (cephalin) was replaced by addition of apoptotic cells.
The cultured medium was discarded, and cells that were loosely attached to the growing surface, were collected in PBS, as described in Example 2B. These cells were washed and resuspended in TBS, and were regarded as advanced apoptotic cells. Equal numbers of apoptotic or control non-treated cells (10^5) in a volume of 100 μl, were mixed with 100 μl of 25 mM of CaCl2 and the clotting time was measured. […] Inhibition of their procoagulant activity by NST300 compounds was tested following pre-incubation of apoptotic cells with the different NST300 compounds.
Pre-incubation of equal numbers of apoptotic or control non-treated cells (10^5) with NST300 compounds was for 10 minutes at room temperature in a final volume of 100 μl. The compounds were used at concentration of 0.5 μM. The results can be seen in FIG. 5a.

[3] = system: clotting induced by negatively charged phospholipids in normal plasma; conditions: 0.5-50 μM; control clotting time 40 seconds
Protocol: The ability of NST300 compounds to inhibit coagulaton catalyzed by negatively—charged phospholipids was evaluated in a standard coagulation test of the Russell viper venom (RVV) assay. The RVV reagent directly activates factor x present in the plasma, thus promoting prothrombinase complex formation. This reagent is widely used as a standard phospholipid responsive clotting test. (Thiagarajan et al., Blood, 1986; 869-874).
The RVV reagent kit, containing RVV and negatively charged phospholipids, from Gradipore, Australia was used. The reactions were started by mixing 100 μl of RVV reagent, and 100 μl of quality control plasma collected from normal individuals (commercially available from Instrumentation Laboratory, Italy). Clotting time was determined as the time-point beyond which the continuously mixed reaction ingredients in the test tube, could no longer be aspirated with a pasteur pipette. Clotting time was measured independently by two separate researchers.

[4] = system: HeLa cells undergoing dopamine-induced apoptosis; conditions: 750 nM
Protocol: HeLa cells were plated on tissue culture plates at a density of 3×10^6 cells/10 cm dish, and grown in a DMEM medium containing 10% FCS, as described in A. The cells were then incubated at 37° C. overnight, and then the medium was replaced with a medium containing 2% FCS and 500 μM of dopamine. 18 hours later, the medium was aspirated and discarded, and 10 ml of Phosphate Buffered Saline pH 7.4 (PBS) were added to the culture dish. The cells which were detached from the culture dish into the PBS were collected. These cells represent advanced apoptotic cells. The remaining cells which were attached to the culture dish were trypsinized by the addition of 2 ml of trypsin for 2 minutes at 37° C., followed by the addition of 10 ml of a medium containing 10% of FCS. The cells were then washed with PBS containing 2% Bovine Serum Albumin (BSA), and resuspended in TBS containing 2% BSA (TBS-BSA). These cells were regarded as early apoptotic cells. […] Only non-treated cells that were attached to the culture dish were used as control cells for the FACS analysis.
A set of 3 different cell types was taken:
The incubation with the NST300 compounds or control compound was performed in a final volume of 100 μl TBS-BSA, 5 μg/ml of propidium iodide (PI) and 750 nM of the tested compound or the control compound.
PI is a red fluorescent dye that stains DNA. […] Only cells that are in advanced apoptotic stages, or cells that have already died by apoptosis or necrosis will be permeable to PI and will be stained with the dye. […] The cells were then washed in 500 μl of cold TBS-BSA and centrifugated as before. The cells were then suspended in 100 μl of TBS-BSA containing streptavidin conjugated to fluorescein (FITC). […] Thereafter, the cells were washed three times in TBS-BSA and were taken for FACS analysis.
The FACS analysis was performed on a Beckton-Dickinson cell sorter, using lysis II software. Excitation was at 488 nm and the emission or FITC detection was at 535 nm and for PI detection at 585 nm.

“Myristate-KKKKKRFSFKKSFKLSGFSFKKNKKK (SEQUENCE ID NO. 2)-(biotin) [NST302]” was tested, and the “cells FITC positive” value [1] was “About 70%”, the “effect on procoagulant effect of apoptotic cells” value ([2]; FIG. 5a) was “fully reversing” and the “increase of clotting time by a factor” value ([2]; apoptotic cells) was 2. For the same substance, the “increase of clotting time by a factor as compared to control” value [3] was 3.1, the “binding intensity (FITC mean value) compared with NST301” value ([4]; apoptotic cells) was “higher binding intensity” and the “binding intensity: ratio of FITC mean value of apoptotic cells to that of control cells” value ([4]; early apoptotic cells, FIG. 3b) was 9 fold.
